The values below come from BindingDB's records for patent US9593123 (Hoffmann-La Roche, 2017).

This test addresses Cannabinoid receptor 1 (Homo sapiens, UniProt P21554).

Each structure is given as a SMILES string.

Chain of Cannabinoid receptor 1 (P21554 whole entry): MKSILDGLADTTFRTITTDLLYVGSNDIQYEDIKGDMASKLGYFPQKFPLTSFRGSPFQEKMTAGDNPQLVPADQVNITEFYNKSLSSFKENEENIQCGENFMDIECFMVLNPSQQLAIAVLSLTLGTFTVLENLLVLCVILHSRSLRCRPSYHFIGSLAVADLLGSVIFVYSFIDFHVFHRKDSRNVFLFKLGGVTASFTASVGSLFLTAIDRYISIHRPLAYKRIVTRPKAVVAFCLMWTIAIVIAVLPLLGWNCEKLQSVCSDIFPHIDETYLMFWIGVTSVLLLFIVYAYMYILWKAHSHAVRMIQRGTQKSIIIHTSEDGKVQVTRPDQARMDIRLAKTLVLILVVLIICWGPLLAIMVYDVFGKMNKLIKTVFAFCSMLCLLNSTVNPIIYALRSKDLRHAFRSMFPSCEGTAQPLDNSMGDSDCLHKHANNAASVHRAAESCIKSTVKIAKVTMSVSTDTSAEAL

Broadly, the EC50 is the concentration at which the effect is half-maximal. The low end stands for an effect from little substance, the high end for a need for much substance. In the case of `CC(=O)N[C@H]1CCN(c2nc(O[C@@H](C)C(F)(F)F)nc3c2nnn3Cc2ccccc2C(F)(F)F)C1` [US9593123, Example 81], the 50% effective concentration (EC50) is greater than 10 µM.
